Columns and labels:
Assay in all cases: In Vitro Kinase Assay
Details in all cases: pH 7.5
Aurora kinase B = Aurora kinase B (Homo sapiens, UniProt Q96GD4)
Protocol: (§1) The IC50 for the different compounds was determined with Invitrogen Z'-LYTE kinase assay kit Ser/Thr 1 peptide PV3174 by following the manufacturer's instructions. To determine the IC50 of receptor tyrosine kinase, an assay based on the ELISA principle with kinases from Biomol (N-terminally fused to GST), POD-coupled antibody from Calbiochem (PY20)) and BM chem chemiluminescence ELISA substrate from Roche was performed.

Angiopoietin-1 receptor = Angiopoietin-1 receptor (Homo sapiens, UniProt Q02763)
Angiopoietin-1 receptor, sequence (Q02763 whole entry): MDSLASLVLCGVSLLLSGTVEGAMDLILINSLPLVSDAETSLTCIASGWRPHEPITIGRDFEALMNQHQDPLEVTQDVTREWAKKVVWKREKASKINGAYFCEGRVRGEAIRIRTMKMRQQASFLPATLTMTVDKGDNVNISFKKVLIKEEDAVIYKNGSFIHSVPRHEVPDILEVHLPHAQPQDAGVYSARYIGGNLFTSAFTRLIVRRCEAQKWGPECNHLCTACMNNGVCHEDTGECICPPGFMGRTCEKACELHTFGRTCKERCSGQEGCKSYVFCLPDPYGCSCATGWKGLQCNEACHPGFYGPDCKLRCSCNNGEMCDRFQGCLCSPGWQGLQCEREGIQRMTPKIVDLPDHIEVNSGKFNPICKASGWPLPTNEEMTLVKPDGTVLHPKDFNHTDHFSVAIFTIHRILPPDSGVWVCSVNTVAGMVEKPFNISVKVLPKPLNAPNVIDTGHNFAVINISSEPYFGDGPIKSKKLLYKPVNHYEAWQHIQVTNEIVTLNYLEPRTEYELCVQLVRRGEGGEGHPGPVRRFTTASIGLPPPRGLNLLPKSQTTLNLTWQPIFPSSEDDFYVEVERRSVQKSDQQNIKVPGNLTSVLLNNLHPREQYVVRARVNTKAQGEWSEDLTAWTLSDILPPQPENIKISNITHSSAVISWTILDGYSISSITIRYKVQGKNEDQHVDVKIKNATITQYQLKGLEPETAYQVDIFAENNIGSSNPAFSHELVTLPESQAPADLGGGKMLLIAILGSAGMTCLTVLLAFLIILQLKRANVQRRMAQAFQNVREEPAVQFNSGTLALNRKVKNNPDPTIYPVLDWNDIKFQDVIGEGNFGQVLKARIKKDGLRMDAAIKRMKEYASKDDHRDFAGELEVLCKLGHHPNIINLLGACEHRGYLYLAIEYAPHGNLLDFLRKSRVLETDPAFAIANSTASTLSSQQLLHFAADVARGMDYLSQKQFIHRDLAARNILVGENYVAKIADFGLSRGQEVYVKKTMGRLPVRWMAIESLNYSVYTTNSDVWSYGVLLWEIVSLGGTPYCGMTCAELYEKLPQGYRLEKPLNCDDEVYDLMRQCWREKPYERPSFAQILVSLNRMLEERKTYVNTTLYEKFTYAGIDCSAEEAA
Protocol: as §1

[1] = target: Epidermal growth factor receptor (Homo sapiens, UniProt P00533)
Protocol: as §1

[2] = target: Fibroblast growth factor receptor 1 (Homo sapiens, UniProt P11362)
Fibroblast growth factor receptor 1, sequence (P11362 whole entry): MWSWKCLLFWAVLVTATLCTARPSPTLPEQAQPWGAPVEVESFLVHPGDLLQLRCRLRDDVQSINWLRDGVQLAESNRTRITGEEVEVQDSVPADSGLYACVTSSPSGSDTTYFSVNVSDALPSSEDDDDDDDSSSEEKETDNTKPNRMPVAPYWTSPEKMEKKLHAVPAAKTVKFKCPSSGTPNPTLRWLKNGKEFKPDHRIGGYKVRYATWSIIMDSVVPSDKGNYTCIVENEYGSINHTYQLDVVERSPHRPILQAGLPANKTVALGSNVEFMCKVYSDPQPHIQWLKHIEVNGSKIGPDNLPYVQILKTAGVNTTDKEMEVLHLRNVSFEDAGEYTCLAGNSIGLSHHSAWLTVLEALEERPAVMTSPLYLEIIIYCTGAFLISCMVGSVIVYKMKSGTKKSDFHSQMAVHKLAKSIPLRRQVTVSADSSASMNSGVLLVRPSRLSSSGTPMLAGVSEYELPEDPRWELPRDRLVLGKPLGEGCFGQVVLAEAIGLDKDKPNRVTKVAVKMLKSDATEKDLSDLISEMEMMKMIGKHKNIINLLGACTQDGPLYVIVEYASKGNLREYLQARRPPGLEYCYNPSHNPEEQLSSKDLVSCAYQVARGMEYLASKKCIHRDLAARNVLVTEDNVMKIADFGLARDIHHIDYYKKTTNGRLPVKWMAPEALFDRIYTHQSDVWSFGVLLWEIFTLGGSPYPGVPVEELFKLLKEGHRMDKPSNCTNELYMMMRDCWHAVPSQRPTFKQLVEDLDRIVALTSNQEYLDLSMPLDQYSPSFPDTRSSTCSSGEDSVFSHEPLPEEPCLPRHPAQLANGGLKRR
Protocol: as §1

[3] = target: Vascular endothelial growth factor receptor 3 (Homo sapiens, UniProt P35916)
Vascular endothelial growth factor receptor 3, sequence (P35916 whole entry): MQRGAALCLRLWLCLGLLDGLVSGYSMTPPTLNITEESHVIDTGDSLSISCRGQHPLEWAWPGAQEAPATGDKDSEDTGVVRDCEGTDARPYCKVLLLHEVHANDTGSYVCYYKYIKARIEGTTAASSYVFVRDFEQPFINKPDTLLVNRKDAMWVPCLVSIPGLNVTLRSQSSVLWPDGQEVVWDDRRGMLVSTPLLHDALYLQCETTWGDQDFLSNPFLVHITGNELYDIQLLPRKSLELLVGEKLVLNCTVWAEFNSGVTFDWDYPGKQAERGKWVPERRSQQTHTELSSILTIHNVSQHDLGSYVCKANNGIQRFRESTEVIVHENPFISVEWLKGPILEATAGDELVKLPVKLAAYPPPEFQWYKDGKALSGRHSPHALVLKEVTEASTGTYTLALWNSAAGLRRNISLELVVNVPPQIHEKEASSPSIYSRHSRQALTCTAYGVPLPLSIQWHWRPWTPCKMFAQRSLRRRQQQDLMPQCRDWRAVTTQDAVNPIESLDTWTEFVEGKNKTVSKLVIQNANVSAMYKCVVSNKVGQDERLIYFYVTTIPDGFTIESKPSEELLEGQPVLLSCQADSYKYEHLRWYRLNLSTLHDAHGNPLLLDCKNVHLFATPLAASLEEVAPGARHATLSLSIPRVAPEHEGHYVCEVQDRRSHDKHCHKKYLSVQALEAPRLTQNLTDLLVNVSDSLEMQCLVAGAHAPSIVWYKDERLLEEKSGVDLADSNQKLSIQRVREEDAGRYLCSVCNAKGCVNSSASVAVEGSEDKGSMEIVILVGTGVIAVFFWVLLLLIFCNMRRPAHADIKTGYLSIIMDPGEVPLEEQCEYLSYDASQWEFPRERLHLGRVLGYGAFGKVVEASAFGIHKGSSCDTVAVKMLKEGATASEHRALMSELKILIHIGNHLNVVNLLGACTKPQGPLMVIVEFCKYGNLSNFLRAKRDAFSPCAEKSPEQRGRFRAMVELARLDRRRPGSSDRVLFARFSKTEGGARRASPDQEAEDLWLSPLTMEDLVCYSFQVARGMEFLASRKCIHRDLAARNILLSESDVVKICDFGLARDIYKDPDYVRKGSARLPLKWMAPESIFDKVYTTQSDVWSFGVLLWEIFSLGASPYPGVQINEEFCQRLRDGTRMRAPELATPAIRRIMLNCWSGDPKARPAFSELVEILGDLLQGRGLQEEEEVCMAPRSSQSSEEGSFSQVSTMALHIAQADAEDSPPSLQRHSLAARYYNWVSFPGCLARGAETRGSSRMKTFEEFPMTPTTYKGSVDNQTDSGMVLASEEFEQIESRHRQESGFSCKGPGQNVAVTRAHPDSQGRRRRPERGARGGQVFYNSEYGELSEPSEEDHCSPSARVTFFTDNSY
Protocol: as §1

Aurora kinase A = target: T1, Aurora kinase A (Homo sapiens, UniProt O14965)
T1 sequence (O14965 whole entry): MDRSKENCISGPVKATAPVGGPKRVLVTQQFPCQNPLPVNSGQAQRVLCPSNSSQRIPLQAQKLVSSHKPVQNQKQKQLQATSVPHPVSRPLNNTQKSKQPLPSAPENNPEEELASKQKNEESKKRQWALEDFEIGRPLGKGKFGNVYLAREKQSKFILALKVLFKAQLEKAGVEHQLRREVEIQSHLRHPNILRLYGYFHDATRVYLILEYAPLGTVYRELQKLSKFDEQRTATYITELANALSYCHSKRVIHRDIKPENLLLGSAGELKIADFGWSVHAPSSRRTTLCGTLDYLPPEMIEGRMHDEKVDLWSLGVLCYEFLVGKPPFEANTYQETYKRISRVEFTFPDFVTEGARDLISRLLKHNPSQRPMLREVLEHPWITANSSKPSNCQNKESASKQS
Protocol: as §1

[4] = target: Vascular endothelial growth factor receptor 2 (Homo sapiens, UniProt P35968)
Protocol: as §1

[5] = target: Insulin-like growth factor 1 receptor (Homo sapiens, UniProt P08069)
Insulin-like growth factor 1 receptor, sequence (P08069 31-736 limits assumed): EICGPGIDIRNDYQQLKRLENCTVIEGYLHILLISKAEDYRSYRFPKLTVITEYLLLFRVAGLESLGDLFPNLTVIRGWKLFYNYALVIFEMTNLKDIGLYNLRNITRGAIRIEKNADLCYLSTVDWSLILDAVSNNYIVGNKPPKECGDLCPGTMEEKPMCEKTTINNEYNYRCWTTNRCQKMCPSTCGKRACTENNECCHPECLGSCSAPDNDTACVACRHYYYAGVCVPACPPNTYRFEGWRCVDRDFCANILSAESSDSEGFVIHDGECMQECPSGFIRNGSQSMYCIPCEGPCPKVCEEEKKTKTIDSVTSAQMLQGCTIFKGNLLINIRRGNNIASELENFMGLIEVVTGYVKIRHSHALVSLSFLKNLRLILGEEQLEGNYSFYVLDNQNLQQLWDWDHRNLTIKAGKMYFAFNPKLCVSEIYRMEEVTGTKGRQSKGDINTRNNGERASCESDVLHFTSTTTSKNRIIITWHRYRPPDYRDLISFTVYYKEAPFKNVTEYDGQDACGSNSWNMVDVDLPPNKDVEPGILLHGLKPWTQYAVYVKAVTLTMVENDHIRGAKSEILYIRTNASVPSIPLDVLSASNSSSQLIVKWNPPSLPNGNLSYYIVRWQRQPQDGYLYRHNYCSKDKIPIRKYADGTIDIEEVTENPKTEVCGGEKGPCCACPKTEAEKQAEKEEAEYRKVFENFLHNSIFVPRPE
Insulin-like growth factor 1 receptor, sequence (P08069 741-1367 limits assumed): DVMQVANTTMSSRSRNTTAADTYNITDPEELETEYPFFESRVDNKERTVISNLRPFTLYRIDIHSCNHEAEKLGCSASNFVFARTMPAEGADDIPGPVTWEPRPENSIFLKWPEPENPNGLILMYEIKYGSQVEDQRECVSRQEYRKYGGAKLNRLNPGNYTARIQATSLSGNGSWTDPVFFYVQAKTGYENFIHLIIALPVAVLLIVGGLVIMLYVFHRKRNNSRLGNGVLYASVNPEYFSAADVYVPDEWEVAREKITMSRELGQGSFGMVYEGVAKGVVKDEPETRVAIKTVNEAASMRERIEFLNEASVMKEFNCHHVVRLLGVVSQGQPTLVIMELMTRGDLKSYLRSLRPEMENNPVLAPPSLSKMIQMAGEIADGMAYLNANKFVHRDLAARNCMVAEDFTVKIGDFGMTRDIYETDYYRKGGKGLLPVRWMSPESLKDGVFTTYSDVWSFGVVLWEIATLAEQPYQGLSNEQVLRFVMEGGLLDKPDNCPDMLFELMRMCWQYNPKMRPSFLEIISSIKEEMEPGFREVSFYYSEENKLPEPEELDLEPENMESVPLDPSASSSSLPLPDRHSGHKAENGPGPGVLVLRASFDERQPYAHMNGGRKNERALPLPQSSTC
Protocol: as §1

Aurora kinase B, sequence (Q96GD4 whole entry, the tested form may be a part): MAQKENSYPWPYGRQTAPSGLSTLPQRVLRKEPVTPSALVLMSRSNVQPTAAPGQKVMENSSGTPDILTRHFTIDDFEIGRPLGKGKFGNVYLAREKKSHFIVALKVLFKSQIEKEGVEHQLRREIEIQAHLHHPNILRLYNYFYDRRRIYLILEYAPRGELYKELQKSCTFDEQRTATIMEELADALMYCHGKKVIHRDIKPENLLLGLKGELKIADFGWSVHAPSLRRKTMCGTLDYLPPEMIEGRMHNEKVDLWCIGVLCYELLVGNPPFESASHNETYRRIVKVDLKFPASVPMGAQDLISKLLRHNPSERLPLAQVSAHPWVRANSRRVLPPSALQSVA

Q: For `CC(C)Nc1nc(-c2ccco2)nc2ccc(C#CCO)cc12` [TC-28], which IC50 (Aurora kinase B) is on record?
A: The IC50 was greater than 100 µM.

Q: And the IC50 (Angiopoietin-1 receptor)?
A: Its IC50 is greater than 100 µM.

Q: What about the IC50 [1] of the same compound?
A: The IC50 was greater than 100 µM.

Q: What about the IC50 [2] of the same compound?
A: The IC50 was greater than 100 µM.

Q: What about the IC50 [3] of the same compound?
A: Its IC50 is greater than 100 µM.

Q: What about the IC50 (Aurora kinase A) of the same compound?
A: The IC50 was 2.7 µM.

Q: And the IC50 [4]?
A: The IC50 was greater than 100 µM.

Q: What about the IC50 [5] of the same compound?
A: Its IC50 is greater than 100 µM.

Q: For `CC(C)Nc1nc(-c2ccco2)nc2ccc(C=CC(C)(C)O)cc12` [TC-34], which IC50 (Aurora kinase B) is on record?
A: The IC50 was 16.2 µM.

Q: And the IC50 (Angiopoietin-1 receptor)?
A: Its IC50 is greater than 100 µM.

Q: And the IC50 [1]?
A: The IC50 was greater than 100 µM.

Q: And the IC50 [2]?
A: Its IC50 is greater than 100 µM.

Q: And the IC50 [3]?
A: Its IC50 is 4.2 µM.

Q: And the IC50 (Aurora kinase A)?
A: The IC50 was 1.9 µM.

Q: What about the IC50 [5] of the same compound?
A: The IC50 was 41.5 µM.

Source: BindingDB's records for doi:10.1002/cbic.200800600 (Parc De Recerca Biomedica De Barcelona, 2009)
